Experimental data as given in a melting point compilation (Tetko et al.; mined from patent text by program, amines drawn as free bases though some values may be those of a salt).

Question: Which melting point does the source give for `O=C(N1Cc2cncnc2-c2ccc(Cl)cc2C1c1ccccc1Cl)C(F)(F)F` (stereo not given) here?
Answer: 178 to 179 °C

Question: With `C=CCNc1cc(C)nc2c(C)n[nH]c12` as the molecule, how does the melting point read?
Answer: 196 to 198 °C

Question: With `CNC(NCc1ccc(Cl)nc1)=C(C(=S)NS(C)(=O)=O)[N+](=O)[O-]` as the molecule, how does the melting point read?
Answer: 129 to 131 °C

Question: Which melting point does the source give for `O=C1NC(=O)C2(C=Cc3c(Cl)sc(Cl)c32)N1` (stereo not given) here?
Answer: 239 to 241 °C

Question: With `COc1ccc(-c2ccccc2)cc1OC1CCCC1` as the molecule, how does the melting point read?
Answer: 62 to 64 °C

Question: Which melting point does the source give for `O=C(Nc1cc(S(=O)(=O)N2CCC(O)C2)sc1Cl)c1cnn2c(C(F)(F)F)cc(-c3ccc(C(F)(F)F)cc3)nc12` (racemic) here?
Answer: 270 °C

Question: With `NC(=O)Nc1ccc(CCOCc2ccccc2-c2ccccc2)cc1` as the molecule, how does the melting point read?
Answer: 143 to 144 °C

Question: Which melting point does the source give for `CCCCc1nc(C(C)(C)O)c(C(=O)O)n1Cc1ccc(-c2ccccc2-c2nnn[nH]2)cc1` here?
Answer: 138 to 141 °C

Question: Which melting point does the source give for `COc1ccccc1/C(=C/C=C/C(=O)NCCCCc1cccnc1)c1ccccc1` here?
Answer: 66 to 68 °C

Question: For `Cc1nnc2n1-c1ccc(N)cc1C(c1ccccc1F)=NC2(C)C`, which melting point is on record?
Answer: 294 °C

Question: Which melting point does the source give for `O=C(CCCCCNC1(c2ccccc2Cl)C(=O)Nc2ccc(Cl)cc21)OCc1ccccc1` (stereo not given) here?
Answer: 98 to 99 °C

Question: Which melting point does the source give for `CCCCSc1c(N)cc(C(=O)O)cc1S(N)(=O)=O` here?
Answer: 223 to 224 °C

Question: For `CCCc1nc2cnccc2s1`, which melting point is on record?
Answer: 44 to 47 °C

Question: For `O=C(O)CN(CC(=O)O)C(=O)c1cc(OCCCCCCCCCCCCOc2ccccc2)ccc1OCc1ccccc1`, which melting point is on record?
Answer: 70 to 75 °C

Question: With `CC(C)(S)CN1CCN(C(=O)c2ccc(O)cc2)CC1` as the molecule, how does the melting point read?
Answer: 46 °C

Question: With `O=C(NC[C@H]1CN(c2ccc3c(c2)CCCc2cnn(C(=O)c4ccccc4)c2-3)C(=O)O1)c1ccccc1` as the molecule, how does the melting point read?
Answer: 75 to 95 °C

Question: For `N#CC(c1ccccc1)c1ccccn1` (racemic), which melting point is on record?
Answer: 89 °C

Question: For `Cn1c(C(F)(F)F)cc(=O)n(-c2cc(OCCC3OCCCO3)c(Cl)cc2F)c1=O`, which melting point is on record?
Answer: 128 to 130 °C

Question: For `COC(=O)CCCc1cc2nc(Cl)ccc2n1S(=O)(=O)c1cccc(-c2cscn2)c1`, which melting point is on record?
Answer: 147 to 148 °C

Question: Which melting point does the source give for `O=C1C=C/C(=C/c2cccc(C(F)(F)F)c2)O1` here?
Answer: 69 to 71 °C

Question: Which melting point does the source give for `CC(C)(C)OC(=O)C(Nc1ccccc1)C(=O)N1CCCC1` (racemic) here?
Answer: 80 °C

Question: For `O=C(O)c1ccc2c(c1)C(=O)C(=Cc1ccccc1)O2`, which melting point is on record?
Answer: 285 to 287 °C

Question: With `COc1ccc(F)c(C)c1NC(=O)OC(C)(C)C` as the molecule, how does the melting point read?
Answer: 81 to 82 °C

Question: For `Cc1c(C(F)(F)F)noc1OCC(=O)O`, which melting point is on record?
Answer: 73.5 to 76 °C

Question: For `Fc1cccc(F)c1-c1ncc(C=Cc2ccc(Cl)cc2)nn1`, which melting point is on record?
Answer: 135 to 140 °C

Question: Which melting point does the source give for `COCCN1C(C)=C(C(=O)OC)C(CCOC)(c2ccccc2Cl)C(C(=O)OC)=C1C` here?
Answer: 120 to 121 °C

Question: For `Clc1cnc(Br)c(Cl)c1`, which melting point is on record?
Answer: 37 to 38 °C

Question: With `CC1CC2C3CC(Cl)C4=CC(=O)C=CC4(C)C3(Cl)C(O)CC2(C)C1C(=O)CO` (stereo not given) as the molecule, how does the melting point read?
Answer: 230 °C

Question: With `CC=CCn1c(C)c(C)c2cnnc(OCc3ccc(F)cc3F)c21` as the molecule, how does the melting point read?
Answer: 93 to 95 °C

Question: With `COc1ccc(F)cc1N1CCN([C@H]2CC[C@@H](c3c[nH]c4ccc(F)cc43)CC2)CC1` as the molecule, how does the melting point read?
Answer: 152 to 153 °C

Question: With `CC(=O)c1sc(Oc2ccc3c(c2)OCO3)c2c1CCc1cnn(C)c1-2` as the molecule, how does the melting point read?
Answer: 102 to 103 °C

Question: For `C=C(C#N)C(=O)OCC(C)(C)C`, which melting point is on record?
Answer: 40 to 41 °C

Question: Which melting point does the source give for `CC(C)(C)OC(=O)C(C#N)C(=O)c1cc(F)c(F)c(F)c1F` (stereo not given) here?
Answer: 90 to 92 °C

Question: Which melting point does the source give for `Cc1oc(C)c(C(=O)OC2CC(C)(C)N(CC#N)C(C)(C)C2)c1C` here?
Answer: 88 to 89 °C

Question: Which melting point does the source give for `CCN(CC)c1ccc(C=C2CCCC(=Cc3ccc(N(CC)CC)cc3)C2=O)cc1` here?
Answer: 167 °C

Question: With `C#CCN(C(C)C)S(=O)(=O)NC(=O)c1cc(-n2c(=O)cc(C(F)(F)F)n(C)c2=S)c(F)cc1Cl` as the molecule, how does the melting point read?
Answer: 94 to 105 °C

Question: For `Cc1nc2c(cc1Cl)C(=O)OC2=O`, which melting point is on record?
Answer: 140 to 141 °C

Question: Which melting point does the source give for `CCCCCCCCCCCCCCCCCCOc1cn(C)c(CNCCCO)cc1=O` here?
Answer: 79 to 82 °C

Question: For `CC(C)(O)CONC(=O)c1ccc(F)c(F)c1Nc1ccc(I)cc1Cl`, which melting point is on record?
Answer: 140 to 153 °C

Question: For `Cn1cc(CS(C)=O)c(=O)c2ccccc21` (stereo not given), which melting point is on record?
Answer: 93 to 95 °C
